According to paper PMC10787763, “Two-substrate enzyme engineering using small libraries that combine the substrate preferences from two different variant lineages” (Scientific Reports, 2024):

Target: T1, E. coli transketolase (TK), 6M variant scaffold (Escherichia coli, UniProt P27302, H100L/H192P/A282P/I365L/D469T/G506A/R520Q, form not given)
T1 construct: gene tktA; full-length, C-terminal His6 tag, expressed in E. coli from lab plasmid (pQR791 / pQR729), Ni-NTA purified; holo-TK with ThDP and Mg2+; non-natural residue by amber suppression in TK-5C
T1 sequence (P27302 whole entry H100L/H192P/A282P/I365L/D469T/G506A/R520Q, form open): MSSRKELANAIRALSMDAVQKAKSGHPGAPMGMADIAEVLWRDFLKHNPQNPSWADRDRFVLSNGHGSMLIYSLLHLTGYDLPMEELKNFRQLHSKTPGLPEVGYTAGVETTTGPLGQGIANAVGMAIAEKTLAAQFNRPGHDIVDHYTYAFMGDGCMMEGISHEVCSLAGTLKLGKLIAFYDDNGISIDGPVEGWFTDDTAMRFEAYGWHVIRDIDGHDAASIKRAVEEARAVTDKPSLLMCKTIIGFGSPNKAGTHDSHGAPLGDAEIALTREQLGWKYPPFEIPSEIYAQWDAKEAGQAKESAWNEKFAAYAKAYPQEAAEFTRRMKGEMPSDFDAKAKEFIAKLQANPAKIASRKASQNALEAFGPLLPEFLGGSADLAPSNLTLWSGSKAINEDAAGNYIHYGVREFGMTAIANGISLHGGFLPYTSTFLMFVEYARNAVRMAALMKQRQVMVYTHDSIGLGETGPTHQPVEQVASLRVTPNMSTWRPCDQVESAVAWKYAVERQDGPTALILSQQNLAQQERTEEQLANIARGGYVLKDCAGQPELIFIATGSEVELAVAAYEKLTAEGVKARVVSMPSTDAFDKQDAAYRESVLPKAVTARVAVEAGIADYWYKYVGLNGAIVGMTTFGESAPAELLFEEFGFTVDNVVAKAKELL
Assay: initial-rate kinetics by RP-HPLC, Michaelis-Menten fit
Format: biochemical
Details: TK-5C; residue 385 is non-natural p-cyano-L-phenylalanine; acceptor substrate varied, 50 mM pyruvate as donor, 2.4 mM ThDP, 9 mM MgCl2, 50 mM Tris-HCl pH 7.0, 21 °C; error is SEM
Excerpt: initial-rate kinetics by RP-HPLC, Michaelis-Menten fit on E. coli transketolase (TK), 6M variant scaffold

- Km: 95 mM
SMILES: O=Cc1cccc(C(=O)O)c1 [3-FBA, 3-formylbenzoic acid]
